Data as given in US11155586B2, “Cystine knot scaffold platform” (Genentech, Inc., priority 2015, dated 2021).
Positions of bridges follow the written chain, without caps; N, C: chain ends. Non-standard residues stand in square brackets, D forms with d. Residues, ends and D or L forms follow the SMILES beside them. 1Nal = N[C@@H](Cc1cccc2ccccc12)C(=O)O

Target: T1, hVEGF-A (Homo sapiens, UniProt P15692)
T1 sequence (P15692 207-395): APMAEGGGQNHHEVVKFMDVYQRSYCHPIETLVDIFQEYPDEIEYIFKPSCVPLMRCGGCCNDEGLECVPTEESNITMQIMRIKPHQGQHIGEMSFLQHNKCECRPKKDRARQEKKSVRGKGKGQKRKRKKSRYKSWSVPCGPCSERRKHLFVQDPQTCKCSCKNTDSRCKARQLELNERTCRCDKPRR
Assay: KDR-CHO VEGF assay to determine cellular IC50 (VEGF mediated Tyr phosphorylation of KDR)
Assay type: cell-based
Method: KDR-CHO cells (CHO cells stably transfected with gD tagged-KDR) were grown in cell growth medium (DMEM/Ham's F-12, 10% diafiltered FBS (GIBCO catalog no. 26400), 25 mM HEPES, 2 mM L-GLUTAMAX™). For VEGF stimulation assay, 5×10^4 cells/well were plated in 100 μl of cell plating medium (DMEM/Ham's F-12, 0.2% BSA, 0.25% diafiltered FBS, 25 mM HEPES, 2 mM L-GLUTAMAX™) in 96-well tissue culture plate and incubated at 37° C. overnight. The medium was replaced with 100 I1 of serum-free cell stimulation medium (DMEM/Ham's F-12, 0.5% BSA, 25 mM HEPES) and cells were incubated at 37° C. for 2 hr. One hour before stimulation, the medium was replaced with 50 I1 of serum-free cell stimulation medium. Concurrently, VEGF (50 ng/ml for hVEGF, 100 ng/ml for mVEGF and rVEGF) was pre-incubated with titrated amount of CKP or anti-VEGF in 50 μl of serum-free cell stimulation medium at 37° C. for 1 hour and added to the cells. The cells were stimulated for 15 min at 37 C and the medium is removed. The cells were lysed with 130 I1 of ice-cold cell lysis buffer (150 mM NaCl, 50 mM HEPES, 0.5% Triton-X 100, HALT protease and phosphatase inhibitor cocktail (ThermoFisher Scientific, Inc. catalog no. 78444), 5 mM EDTA). VEGF mediated Tyr phosphorylation of KDR was determined by ELISA-based assay. Briefly, MAXISORP™ 96 well plates (ThermoFisher Scientific, Inc. catalog no. 439454) were coated with 100 I1 of anti-gD antibody diluted in PBS (1 μg/ml) at 4° C. overnight and washed three times with washing buffer (PBS, 0.05% TWEEN®20, pH 7.4). The plates were blocked with 300 I1 of blocking buffer (PBS, 0.5% BSA) at room temperature for 1 hour followed by washing three times with washing buffer. The above KDR-CHO cell lysate (100 μl) was added to each well and incubated at room temperature for 2 hours. The plates were washed four times with washing buffer followed by incubation with 100 I1 of 0.5 μg/ml biotin-conjugated anti-phosphotyrosine (clone 4G10, Millipore catalog no. 16-103) in blocking buffer at room temperature for 2 hours. After washing four times, the plates were incubated with 100 I1 of HRP-conjugated streptavidin in blocking buffer at room temperature for 30 min. After washing four times, the plates were developed with 100 I1 of TMB substrate (BD Biosciences) at room temperature for 20-30 min and stopped by addition of 50 μl of H2SO4 solution. The optical density of each well was determined using a microplate reader set to 450 nm.

CC[C@H](C)[C@@H]1NC(=O)[C@H](CC(N)=O)NC(=O)[C@@H](NC(=O)CN)CSSC[C@@H](C(=O)N[C@H](C(=O)N[C@H]2CSSC[C@@H](C(=O)NCC(=O)O)NC(=O)[C@H](CO)NC(=O)[C@H](CCC(N)=O)NC(=O)[C@H](Cc3ccc(O)cc3)NC(=O)[C@H](Cc3ccc(O)cc3)NC(=O)[C@H](CCC(N)=O)NC2=O)C(C)C)NC(=O)CNC(=O)[C@H](C)NC(=O)[C@H](CC(C)C)NC(=O)[C@@H]2CSSC[C@H](NC(=O)CNC(=O)[C@H](Cc3cccc4ccccc34)NC(=O)[C@H](Cc3ccccc3)NC(=O)[C@@H]3CCCN3C(=O)[C@H](CC(C)C)NC(=O)[C@H](CCSC)NC1=O)C(=O)NCC(=O)N[C@@H](CCCNC(=N)N)C(=O)N[C@@H](CC(=O)O)C(=O)N[C@@H](Cc1ccccc1)C(=O)N[C@@H](CCC(=O)O)C(=O)N2 [9.54.90.Naph1] (H-GCNIMLPF[1Nal]GCGRDFECLAGCVCQYYQSCG-OH; disulfide 2-21, 11-17, 23-29; N-terminus and C-terminus assumed)
FOLD IMPROVEMENT RELATIVE TO VARIANT 9.54.90 (Table 38, from cellular IC50): 0.24

CC[C@H](C)[C@H](NC(=O)[C@@H]1CSSC[C@H](NC(=O)CN)C(=O)N[C@@H](CC(N)=O)C(=O)N[C@@H]([C@@H](C)CC)C(=O)N[C@@H](CCSC)C(=O)N[C@@H](CC(C)C)C(=O)N2CCC[C@H]2C(=O)N[C@@H](Cc2ccccc2)C(=O)N[C@@H](Cc2c[nH]c3ccccc23)C(=O)NCC(=O)N[C@H]2CSSC[C@H](NC(=O)[C@H](CCC(=O)O)NC(=O)[C@H](Cc3ccccc3)NC(=O)[C@H](CC(=O)O)NC(=O)[C@H](CCCNC(=N)N)NC(=O)CNC2=O)C(=O)N[C@@H](CCSC)C(=O)N[C@@H](CCC(=O)O)C(=O)N[C@@H](CCC(N)=O)C(=O)N1)C(=O)N[C@H]1CSSC[C@@H](C(=O)NCC(=O)O)NC(=O)[C@H](CO)NC(=O)[C@H](CCC(N)=O)NC(=O)[C@H](Cc2ccc(O)cc2)NC(=O)[C@H](Cc2ccc(O)cc2)NC(=O)[C@H](CCC(N)=O)NC1=O [9.54.90.67] (H-GCNIMLPFWGCGRDFECMEQCICQYYQSCG-OH; disulfide 2-21, 11-17, 23-29; N-terminus and C-terminus assumed)
FOLD IMPROVEMENT RELATIVE TO VARIANT 9.54.90 (Table 36, from cellular IC50): 1.23 | FOLD IMPROVEMENT RELATIVE TO VARIANT 9.54.90 (Table 38, from cellular IC50): 1.23

CC[C@H](C)[C@H](NC(=O)[C@@H]1CSSC[C@H](NC(=O)CN)C(=O)N[C@@H](CC(N)=O)C(=O)N[C@@H]([C@@H](C)CC)C(=O)N[C@@H](CCSC)C(=O)N[C@@H](CC(C)C)C(=O)N2CCC[C@H]2C(=O)N[C@@H](Cc2ccc(O)cc2)C(=O)N[C@@H](Cc2c[nH]c3ccccc23)C(=O)NCC(=O)N[C@H]2CSSC[C@H](NC(=O)[C@H](CCC(=O)O)NC(=O)[C@H](Cc3ccccc3)NC(=O)[C@H](CC(=O)O)NC(=O)[C@H](CCCNC(=N)N)NC(=O)CNC2=O)C(=O)N[C@@H](Cc2ccccc2)C(=O)N[C@@H](Cc2ccc(O)cc2)C(=O)N[C@@H](CCC(=O)O)C(=O)N1)C(=O)N[C@H]1CSSC[C@@H](C(=O)NCC(=O)O)NC(=O)[C@H](CO)NC(=O)[C@H](CCC(N)=O)NC(=O)[C@H](Cc2ccc(O)cc2)NC(=O)[C@H](Cc2ccc(O)cc2)NC(=O)[C@H](CCC(N)=O)NC1=O [9.54.90.62.F8Y] (H-GCNIMLPYWGCGRDFECFYECICQYYQSCG-OH; disulfide 2-21, 11-17, 23-29; N-terminus and C-terminus assumed)
FOLD IMPROVEMENT RELATIVE TO VARIANT 9.54.90 (Table 38, from cellular IC50): 1.18

CC[C@H](C)[C@H](NC(=O)[C@@H]1CSSC[C@H](NC(=O)CN)C(=O)N[C@@H](CC(N)=O)C(=O)N[C@@H]([C@@H](C)CC)C(=O)N[C@@H](CCSC)C(=O)N[C@@H](CC(C)C)C(=O)N2CCC[C@H]2C(=O)N[C@@H](Cc2ccccc2)C(=O)N[C@@H](Cc2c[nH]c3ccccc23)C(=O)NCC(=O)N[C@H]2CSSC[C@H](NC(=O)[C@H](CCC(=O)O)NC(=O)[C@H](Cc3ccccc3)NC(=O)[C@H](CC(=O)O)NC(=O)[C@H](CCCNC(=N)N)NC(=O)CNC2=O)C(=O)N[C@@H](CCSC)C(=O)N[C@@H](CC(N)=O)C(=O)N[C@@H](CCC(N)=O)C(=O)N1)C(=O)N[C@H]1CSSC[C@@H](C(=O)NCC(=O)O)NC(=O)[C@H](CO)NC(=O)[C@H](CCC(N)=O)NC(=O)[C@H](Cc2ccc(O)cc2)NC(=O)[C@H](Cc2ccc(O)cc2)NC(=O)[C@H](CCC(N)=O)NC1=O [9.54.90.13] (H-GCNIMLPFWGCGRDFECMNQCICQYYQSCG-OH; disulfide 2-21, 11-17, 23-29; N-terminus and C-terminus assumed)
FOLD IMPROVEMENT RELATIVE TO VARIANT 9.54.90 (Table 36, from cellular IC50): 1.41 | FOLD IMPROVEMENT RELATIVE TO VARIANT 9.54.90 (Table 38, from cellular IC50): 1.41

CCCC[C@@H]1NC(=O)[C@H]([C@@H](C)CC)NC(=O)[C@H](CC(N)=O)NC(=O)[C@@H](NC(=O)CN)CSSC[C@@H](C(=O)N[C@H](C(=O)N[C@H]2CSSC[C@@H](C(=O)NCC(=O)O)NC(=O)[C@H](CO)NC(=O)[C@H](CCC(N)=O)NC(=O)[C@H](Cc3ccc(O)cc3)NC(=O)[C@H](Cc3ccc(O)cc3)NC(=O)[C@H](CCC(N)=O)NC2=O)C(C)C)NC(=O)CNC(=O)[C@H](C)NC(=O)[C@H](CC(C)C)NC(=O)[C@@H]2CSSC[C@H](NC(=O)CNC(=O)[C@H](Cc3c[nH]c4ccccc34)NC(=O)[C@H](Cc3ccccc3)NC(=O)[C@@H]3CCCN3C(=O)[C@H](CC(C)C)NC1=O)C(=O)NCC(=O)N[C@@H](CCCNC(=N)N)C(=O)N[C@@H](CC(=O)O)C(=O)N[C@@H](Cc1ccccc1)C(=O)N[C@@H](CCC(=O)O)C(=O)N2 [9.54.90.M5.Nle]
FOLD IMPROVEMENT RELATIVE TO VARIANT 9.54.90 (Table 38, from cellular IC50): 0.69

CC[C@H](C)[C@@H]1NC(=O)[C@H](CC(N)=O)NC(=O)[C@@H](NC(=O)CN)CSSC[C@@H](C(=O)N[C@H](C(=O)N[C@H]2CSSC[C@@H](C(=O)NCC(=O)O)NC(=O)[C@H](CO)NC(=O)[C@H](CCC(N)=O)NC(=O)[C@H](Cc3ccc(O)cc3)NC(=O)[C@H](Cc3ccc(O)cc3)NC(=O)[C@H](CCC(N)=O)NC2=O)C(C)C)NC(=O)CNC(=O)[C@H](C)NC(=O)[C@H](CC(C)C)NC(=O)[C@@H]2CSSC[C@H](NC(=O)CNC(=O)[C@H](Cc3c[nH]c4ccccc34)NC(=O)[C@H](Cc3ccc(O)cc3)NC(=O)[C@@H]3CCCN3C(=O)[C@H](CC(C)C)NC(=O)[C@H](CCSC)NC1=O)C(=O)NCC(=O)N[C@@H](CCCNC(=N)N)C(=O)N[C@@H](CC(=O)O)C(=O)N[C@@H](Cc1ccccc1)C(=O)N[C@@H](CCC(=O)O)C(=O)N2 [9.54.90.F8Y] (H-GCNIMLPYWGCGRDFECLAGCVCQYYQSCG-OH; disulfide 2-21, 11-17, 23-29; N-terminus and C-terminus assumed)
FOLD IMPROVEMENT RELATIVE TO VARIANT 9.54.90 (Table 38, from cellular IC50): 0.85

CC[C@H](C)[C@H](NC(=O)[C@@H]1CSSC[C@H](NC(=O)CN)C(=O)N[C@@H](CC(N)=O)C(=O)N[C@@H]([C@@H](C)CC)C(=O)N[C@@H](CCSC)C(=O)N[C@@H](CC(C)C)C(=O)N2CCC[C@H]2C(=O)N[C@@H](Cc2ccc(O)cc2)C(=O)N[C@@H](Cc2c[nH]c3ccccc23)C(=O)NCC(=O)N[C@H]2CSSC[C@H](NC(=O)[C@H](CCC(=O)O)NC(=O)[C@H](Cc3ccccc3)NC(=O)[C@H](CC(=O)O)NC(=O)[C@H](CCCNC(=N)N)NC(=O)CNC2=O)C(=O)N[C@@H](CCSC)C(=O)N[C@@H](CC(N)=O)C(=O)N[C@@H](CCC(N)=O)C(=O)N1)C(=O)N[C@H]1CSSC[C@@H](C(=O)NCC(=O)O)NC(=O)[C@H](CO)NC(=O)[C@H](CCC(N)=O)NC(=O)[C@H](Cc2ccc(O)cc2)NC(=O)[C@H](Cc2ccc(O)cc2)NC(=O)[C@H](CCC(N)=O)NC1=O [9.54.90.13.F8Y] (H-GCNIMLPYWGCGRDFECMNQCICQYYQSCG-OH; disulfide 2-21, 11-17, 23-29; N-terminus and C-terminus assumed)
FOLD IMPROVEMENT RELATIVE TO VARIANT 9.54.90 (Table 38, from cellular IC50): 0.67
